Measurements from US20230149351A1, “TREATMENT OF SYMPTOMATIC VIRAL DISEASES” (SYNACT PHARMA ApS, priority 2020, published 2023).

Assays:
[1] = test system: MC1R; conditions: cited from earlier work
[2] = test system: acute peritonitis induced by zymosan A; test: Zymosan A induced acute peritonitis in mice (peritoneal cytokines by ELISA, neutrophil counts by flow cytometry); type: in vivo, mice (C57BL/6J); conditions: 1 mg/kg intraperitoneal 30 minutes before zymosan A, sacrifice twelve hours later, N=6
Method: Acute peritonitis was induced by the injection of 1 mg zymosan A (Sigma-Aldrich) i.p. in 0.5 ml sterile PBS in mice. Twelve hours later the mice were sacrificed by CO2 exposure, and peritoneal cavities were washed with 4 ml ice-cold PBS containing 3 mM EDTA. Cells were stained with Turk’s solution (0.01% crystal violet in 3% acetic acid) and counted using a Neubauer hemocytometer or were stained with FITC-conjugated mAb for Ly-6G/Gr1, F4/80, and corresponding isotype controls (eBioscience, Hatfield, U.K.), and subjected to flow-cytometry analysis using a BD FACSCalibur platform (BD Biosciences, Oxford, U.K.).
Levels of IL-1β and IL-6 in quick frozen samples were quantified according to the manufacturer’s instructions using ELISA Ready-SET-Go! (eBioscience).
All animal studies were approved by and performed under the guidelines of the Ethical Committee for the Use of Animals, Barts and The London School of Medicine and Home Office regulations (Guidance on the Operation of Animals, Scientific Procedures Act, 1986). Male (7-8 wk old) C57BL/6J wild-type (WT) mice were purchased from Charles River Laboratories.
Test Item A, 1 mg/kg or vehicle treatment were given intraperitoneal 30 minutes before induction of the acute peritonitis. N=6 for in both groups.

[3] = molecular target: MC1R (Homo sapiens, UniProt Q01726); conditions: cited from earlier work
Sequence of MC1R (Homo sapiens, UniProt Q01726) (Q01726 whole entry, species assumed): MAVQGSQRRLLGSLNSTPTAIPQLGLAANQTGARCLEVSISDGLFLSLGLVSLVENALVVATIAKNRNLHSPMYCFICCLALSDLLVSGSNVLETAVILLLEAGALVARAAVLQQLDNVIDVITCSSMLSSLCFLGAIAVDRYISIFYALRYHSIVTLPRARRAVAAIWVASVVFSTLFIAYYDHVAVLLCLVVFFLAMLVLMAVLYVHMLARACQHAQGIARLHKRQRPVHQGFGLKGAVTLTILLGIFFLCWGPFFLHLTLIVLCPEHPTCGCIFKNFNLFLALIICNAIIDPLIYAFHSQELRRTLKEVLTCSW

[4] = test system: experimental inflammatory arthritis; conditions: oral; cited from earlier work
[5] = test system: peritonitis; conditions: oral; cited from earlier work
[6] = test system: Covid-19 induced pulmonary insufficiency; conditions: 100 mg once daily oral, add-on to standard therapy; 6 patients
Method: The initial open label part of the study was conducted in 6 patients referred to hospital with Covid-19 induced pulmonary insufficiency, defined as a need for supplementary oxygen to maintain normal saturation.

[7] = test system: mouse primary macrophages; conditions: cited from earlier work
[8] = test system: melanocytes; conditions: cited from earlier work
[9] = test system: MC3R; conditions: cited from earlier work
[10] = test system: macrophages; conditions: cited from earlier work

NC(N)=N/N=C/C=C/c1cccn1-c1ccccc1[N+](=O)[O-] [AP1189, (E)-N-trans-{3-[1-(2-nitrophenyl)-1H-pyrrol-2-yl]-allylidene}-aminoguanidium acetate]
ERK1/2 phosphorylation (MC1R) [1]: cause ERK1/2 phosphorylation
canonical cAMP generation (MC1R) [1]: does not induce canonical cAMP generation
type of agonism at MC1R [1]: biased agonist
reduction of neutrophil accumulation compared to vehicle [2]: 70%
reduction of levels of pro-inflammatory cytokine IL-1β compared to pretreatment with vehicle ([2]; p<0.05 vs vehicle): 37%
reduction of levels of pro-inflammatory cytokine IL-6 compared to pretreatment with vehicle ([2]; p<0.05 vs vehicle): 59%
binding to MC1R [3]: bind the MC1R
macroscopic and histological parameters of joint disruption [4]: significant reduction
anti-inflammatory action in peritonitis [5]: elicits anti-inflammatory actions
resolution phase of peritonitis [5]: accelerated the resolution phase
development of a need for more intensive pulmonary support [6]: none of them developed a need for more intensive pulmonary support
safety and tolerability [6]: safe and well tolerated
efferocytosis [7]: proefferocytic effect
melanogenesis [8]: no melanogenesis was induced
ERK1/2 phosphorylation (MC3R) [9]: cause ERK1/2 phosphorylation
canonical cAMP generation (MC3R) [9]: does not induce canonical cAMP generation
type of agonism at MC3R [9]: biased agonist
cytokine release [10]: reduce cytokine release
